Drawing on patent US20160075653A1, “NEMATICIDAL N-(PHENYLCYCLOALKYL)CARBOXAMIDES AND N-(PHENYLCYCLOALKYL)THIOCARBOXAMIDES” (BAYER CROPSCIENCE AKTIENGESELLSCHAFT, priority 2013, published 2016), this text covers logP for 59 compounds.

A short description of this data set: Measurement of log P values by HPLC on reversed phase columns (methods [a] pH 2.3, [b] pH 2.7, [c] pH 7.8). The class given is physicochemical. Particulars: HPLC reversed phase. The essentials: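 Determined per EEC Directive 79/831 Annex V.A8 by reversed-phase HPLC, 10-95% acetonitrile gradient: [a] pH 2.3, 0.1% phosphoric acid; [b] LC-MS, pH 2.7, 0.1% formic acid; [c] LC-MS, pH 7.8, 0.001 molar ammonium hydrogen carbonate. Calibrated with C3-C16 alkan-2-ones by retention-time interpolation.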

Regarding `O=C(NC1CCCC1c1ccc(Cl)cc1Cl)c1ccccc1Cl` (stereo not shown) [Example 351], where the note is “method [b] (pH 2.7)”, the logP is 3.87^[b]. Same read-out and setting: for `Cc1nc(C)c(C(=O)NC2CCCC2c2ccc(Cl)cc2Cl)s1` (stereo not shown) [Example 354] the value was 3.24^[b]; for `O=C(NC1CCCC1c1ccccc1Br)c1ccccc1C(F)(F)F` (stereo not shown) [Example 355], 3.71^[b]. On the same count and under the same terms, for `O=C(NC1CCCC1c1ccc(Cl)cc1Cl)c1cccnc1Cl` (stereo not shown) [Example 356] the value was 3.20^[b]; for `O=C(NC1CCCC1c1ccccc1Br)c1ccccc1I` (stereo not shown) [Example 357], 3.67^[b]; for `Cc1nn(C)cc1C(=O)NC1CCCC1c1ccc(Cl)cc1Cl` (stereo not shown) [Example 359], 2.67^[b]. The same measure, in the same setting: for `O=C(NC1CCCC1c1ccccc1Cl)c1cccnc1C(F)(F)F` (stereo not shown) [Example 361] the value was 3.01^[b]. Regarding `O=C(NC1CCCC1c1c(F)cccc1F)c1cccnc1C(F)(F)F` (stereo not shown) [Example 362], the logP (method [b] (pH 2.7)) was 2.86^[b]. In the case of `O=C(NC1CCCC1c1ccc(C(F)(F)F)cc1)c1ccccc1I` (stereo not shown) [Example 363], the logP was 3.86^[b] (method [b] (pH 2.7)) and 3.79^[c]; (method [c] pH 7.8). For `O=C(NC1CCCCC1c1ccc(Cl)cc1)c1ccccc1C(F)(F)F` (stereo not shown) [Example 364], the logP (method [b] (pH 2.7)) is 3.84^[b]. With `O=C(NC1CCCCC1c1ccc(C(F)(F)F)cc1)c1ccccc1C(F)(F)F` (stereo not shown) [Example 365], the logP is, setting by setting: (method [b] (pH 2.7)) 4.12^[b]; (method [c] pH 7.8) 4.05^[c];. As to `Cc1nc(C)c(C(=O)NC2CCCCC2c2ccc(Cl)cc2)s1` (stereo not shown) [Example 366], under “method [b] (pH 2.7)”, the logP was 3.03^[b].

On to `Cc1nn(C)cc1C(=O)NC1CCCCC1c1ccc(Cl)cc1` (stereo not shown) [Example 367], for which, where the note is “method [b] (pH 2.7)”, the logP is 2.49^[b]. Regarding `O=C(NC1CCCCC1c1ccc(Cl)cc1)c1cccnc1C(F)(F)F` (stereo not shown) [Example 368], the logP (method [b] (pH 2.7)) was 3.31^[b]. Same read-out and setting: for `O=C(NC1CCCCC1c1ccc(Cl)cc1)c1c(F)cccc1F` (stereo not shown) [Example 369] the value was 3.50^[b].

As to `O=C(NC1CCCCC1c1ccc(Cl)cc1)c1cccnc1Cl` (stereo not shown) [Example 370], the logP (method [b] (pH 2.7)) was 2.99^[b]. On the same count and under the same terms, for `O=C(NC1CCCCC1c1ccc(Cl)cc1)c1ccccc1Cl` (stereo not shown) [Example 371] the value was 3.65^[b]; for `O=C(NC1CCCCC1c1ccc(Cl)cc1)c1ccccc1I` (stereo not shown) [Example 372], 3.84^[b]; for `O=C(NC1CCCCC1c1ccccc1C(F)(F)F)c1ccccc1I` (stereo not shown) [Example 373], 4.22^[b].

For the compound `O=C(NC1CCCCC1c1ccccc1C(F)(F)F)c1ccccc1C(F)(F)F` (stereo not shown) [Example 374], the logP (method [b] (pH 2.7)) was 4.21^[b]. Consider `O=C(NC1CCCCC1c1ccccc1C(F)(F)F)c1cccnc1C(F)(F)F` (stereo not shown) [Example 375], for which the logP (method [b] (pH 2.7)) was 3.68^[b]. Same read-out and setting: for `Cc1nc(C)c(C(=O)NC2CCCCC2c2ccccc2Cl)s1` (stereo not shown) [Example 376] the value was 3.24^[b]; for `Cc1nn(C)cc1C(=O)NC1CCCCC1c1ccccc1Cl` (stereo not shown) [Example 377], 2.64^[b]. `O=C(NC1CCCCC1c1ccccc1Cl)c1cccnc1C(F)(F)F` (stereo not shown) [Example 378]: the logP (method [b] (pH 2.7)) was 3.45^[b].

Consider `O=C(NC1CCCCC1c1ccccc1Cl)c1c(F)cccc1F` (stereo not shown) [Example 379], for which the logP (method [b] (pH 2.7)) is 3.67^[b]. Same read-out and setting: under `O=C(NC1CCCCC1c1ccccc1Cl)c1cccnc1Cl` (stereo not shown) [Example 380] stands 3.16^[b]; under `O=C(NC1CCCCC1c1ccccc1Cl)c1ccccc1Cl` (stereo not shown) [Example 381], 3.88^[b]; under `O=C(NC1CCCCC1c1ccccc1Cl)c1ccccc1I` (stereo not shown) [Example 382], 4.02^[b]. For `O=C(NC1CCCCC1c1ccccc1Cl)c1ccccc1C(F)(F)F` (stereo not shown) [Example 383], the logP (method [b] (pH 2.7)) was 4.01^[b]. Same read-out and setting: under `Cc1nn(C)cc1C(=O)NC1CCCCC1c1ccccc1C(F)(F)F` (stereo not shown) [Example 384] stands 2.87^[b]; under `O=C(NC1CCCCC1c1ccccc1C(F)(F)F)c1cccnc1C(F)(F)F` (stereo not shown) [Example 385], 3.61^[b].

As for `O=C(NC1CCCCC1c1ccccc1C(F)(F)F)c1c(F)cccc1F` (stereo not shown) [Example 386], where the note is “method [b] (pH 2.7)”, the logP was 3.80^[b]. Same read-out and setting: for `O=C(NC1CCCCC1c1ccccc1C(F)(F)F)c1cccnc1Cl` (stereo not shown) [Example 387] the value was 3.33^[b]; for `O=C(NC1CCCCC1c1ccccc1C(F)(F)F)c1ccccc1Cl` (stereo not shown) [Example 388], 4.02^[b]; for `O=C(NC1CCCCC1c1ccccc1C(F)(F)F)c1ccccc1I` (stereo not shown) [Example 389], 4.13^[b].

Consider `O=C(NC1CCCCC1c1ccccc1C(F)(F)F)c1ccccc1C(F)(F)F` (stereo not shown) [Example 390], for which the logP (method [b] (pH 2.7)) was 4.11^[b]. The same measure, in the same setting: for `O=C(NC1CCCC1c1ccccc1Cl)c1c(F)cccc1F` (stereo not shown) [Example 391] the value was 3.18^[b]; for `Cc1nc(C)c(C(=O)NC2CCCCC2c2ccccc2C(F)(F)F)s1` (stereo not shown) [Example 392], 3.49^[b]. Consider `Cc1nn(C)cc1C(=O)NC1CCCCC1c1c(F)cccc1F` (stereo not shown) [Example 393], for which, for the setting “method [b] (pH 2.7)”, the logP is 2.51^[b]. On the same count and under the same terms, for `Cc1nc(C)c(C(=O)NC2CCCCC2c2c(F)cccc2F)s1` (stereo not shown) [Example 394] the value was 3.16^[b]; for `O=C(NC1CCCCC1c1c(F)cccc1F)c1c(F)cccc1F` (stereo not shown) [Example 395], 3.44^[b]; for `O=C(NC1CCCCC1c1c(F)cccc1F)c1ccccc1Cl` (stereo not shown) [Example 396], 3.68^[b]. Regarding `O=C(NC1CCCCC1c1c(F)cccc1F)c1cccnc1Cl` (stereo not shown) [Example 397], the logP (method [b] (pH 2.7)) is 2.99^[b]. For the compound `O=C(NC1CCCCC1c1c(F)cccc1F)c1cccnc1C(F)(F)F` (stereo not shown) [Example 398], the logP (method [b] (pH 2.7)) is 3.26^[b]. The same measure, in the same setting: under `O=C(NC1CCCCC1c1c(F)cccc1F)c1ccccc1C(F)(F)F` (stereo not shown) [Example 399] stands 3.87^[b]. On the same count and under the same terms, under `O=C(NC1CCCCC1c1c(F)cccc1F)c1ccccc1I` (stereo not shown) [Example 400] stands 3.84^[b]; under `Cc1nc(C)c(C(=O)NC2CCCCC2c2ccccc2Br)s1` (stereo not shown) [Example 401], 3.35^[b]; under `Cc1nn(C)cc1C(=O)NC1CCCCC1c1ccccc1Br` (stereo not shown) [Example 402], 2.74^[b]. On to `O=C(NC1CCCCC1c1ccccc1Br)c1cccnc1C(F)(F)F` (stereo not shown) [Example 403], for which, under “method [b] (pH 2.7)”, the logP was 3.53^[b]. Still for that read-out and setting: for `O=C(NC1CCCCC1c1ccccc1Br)c1c(F)cccc1F` (stereo not shown) [Example 404] the value was 3.78^[b]; for `O=C(NC1CCCCC1c1ccccc1Br)c1ccccc1Cl` (stereo not shown) [Example 405], 3.97^[b]; for `O=C(NC1CCCCC1c1ccccc1Br)c1ccccc1I` (stereo not shown) [Example 406], 4.12^[b]. Still for that read-out and setting: for `O=C(NC1CCCCC1c1ccccc1Br)c1ccccc1C(F)(F)F` (stereo not shown) [Example 407] the value was 4.10^[b]. Take `O=C(NC1CCCCC1c1ccc(Cl)cc1Cl)c1cccnc1Cl` (stereo not shown) [Example 408]: where the note is “method [b] (pH 2.7)”, the logP was 3.76^[b]. Still for that read-out and setting: under `O=C(NC1CCCCC1c1ccc(Cl)cc1Cl)c1ccccc1Cl` (stereo not shown) [Example 409] stands 4.47^[b]; under `Cc1nc(C)c(C(=O)NC2CCCCC2c2ccc(Cl)cc2Cl)s1` (stereo not shown) [Example 410], 3.88^[b]; under `O=C(NC1CCCCC1c1ccc(Cl)cc1Cl)c1c(F)cccc1F` (stereo not shown) [Example 411], 4.26^[b].

Take `O=C(NC1CCCCC1c1ccc(Cl)cc1Cl)c1ccccc1C(F)(F)F` (stereo not shown) [Example 412]: the logP (method [b] (pH 2.7)) was 4.49^[b]. On the same count and under the same terms, under `O=C(NC1CCCCC1c1ccccc1Br)c1cccnc1Cl` (stereo not shown) [Example 413] stands 3.25^[b].
